Laboratory results: patent US12479816B2, “20-HETE formation inhibitors” (UNIVERSITY OF PITTSBURGH—OF THE COMMONWEALTH SYSTEM OF …, priority 2019, dated 2025)

System: 20-HETE formation (CYP4) in HLM
Experiment: Inhibition of 20-HETE formation at 250 or 500 nM in HLM microsomal incubations
Assay type: biochemical, human
Conditions: 500 nM compound; HLM 300 μg/ml, AA 100 μM, 20 min
In short: (§1)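 Liver or kidney microsomes (300 μg/ml) or rCYP4F2 (25 pmol/mL) were incubated with 100 μM arachidonic acid, 1 mM NADPH and compound at 250 or 500 nM in 0.12 M potassium phosphate/5 mM MgCl2 for 20 min at 37 °C. 20-HETE was measured by UPLC-MS/MS against 20-HETE-d6 and expressed as % of vehicle (n=3).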

In order of rising “HLM % inh. @ 500 nM” value:
1. c1ccc(OC2CCN(c3cn[nH]c3)CC2)cc1 [Compound 14, 4-Phenoxy-1-(1H-pyrazol-4-yl)piperidine]  53.00%
2. COCc1ccc(C2CCN(c3ccn[nH]3)CC2)cc1 [Compound 25, 4-(4-(Methoxymethyl)phenyl)-1-(1H-pyrazol-5-yl)piperidine]  56.40%
3. c1ccc(SC2CCN(c3cn[nH]c3)CC2)cc1 [Compound 40, 4-(Phenylthio)-1-(1H-pyrazol-4-yl)piperidine]  65.80%
4. Cc1ccc(C2CCN(c3ccn[nH]3)CC2)cc1 [Compound 23, 1-(1H-Pyrazol-5-yl)-4-(p-tolyl)piperidine]  67.40%
5. COCc1ccc(C2CCN(c3cn[nH]c3)CC2)cc1 [Compound 26, 4-(4-(Methoxymethyl)phenyl)-1-(1H-pyrazol-4-yl)piperidine]  71.70%
6. Cc1ccc(C2CCN(c3cn[nH]c3)CC2)cc1 [Compound 24, 1-(1H-Pyrazol-4-yl)-4-(p-tolyl)piperidine]  73.80%

System: 20-HETE formation (CYP4) in HLM
Experiment: IC50 determination, 20-HETE formation in HLM
Assay type: biochemical, human
Conditions: HLM 300 μg/ml, AA 100 μM, 12 concentrations
Description: Microsomal incubations contained HLM, RLM (300 μg/ml), AA (100 μM), NADPH (1 mM) and test compounds at 12 concentrations (0.1 nM-50 μM) in a 1 ml total volume in microsomal incubation buffer (0.12 M potassium phosphate buffer containing 5 mM magnesium chloride). Reaction was started by adding NADPH to the incubates and was carried out at 37° C. in a shaking water bath for 20 min. Reaction was stopped by placing tubes on ice, followed by adding 12.5 μl 20-HETE-d6 as internal standard to each sample. Microsomal incubations were extracted with 3 ml ethyl ether twice, dried down under nitrogen gas and reconstituted in 125 μl 80:20 methanol:deionized H2O for analysis. 20-HETE formation was quantified using the validated UPLC-MS/MS assay described above and normalized by vehicle group. HET0016 (250 nM) was used as positive control. Incubates without NADPH group served as the negative control. IC50 was determined by fitting the dose-response curve using Graphpad Prism nonlinear regression.

In order of rising IC50:
1. Cc1ccc(C2CCN(c3cn[nH]c3)CC2)cc1 [Compound 24, 1-(1H-Pyrazol-4-yl)-4-(p-tolyl)piperidine]  0.08 µM
2. c1ccc(SC2CCN(c3cn[nH]c3)CC2)cc1 [Compound 40, 4-(Phenylthio)-1-(1H-pyrazol-4-yl)piperidine]  0.1 µM
3. Cc1ccc(C2CCN(c3ccn[nH]3)CC2)cc1 [Compound 23, 1-(1H-Pyrazol-5-yl)-4-(p-tolyl)piperidine]  0.11 µM
4. COCc1ccc(C2CCN(c3cn[nH]c3)CC2)cc1 [Compound 26, 4-(4-(Methoxymethyl)phenyl)-1-(1H-pyrazol-4-yl)piperidine]  0.2 µM
5. c1ccc(OC2CCN(c3cn[nH]c3)CC2)cc1 [Compound 14, 4-Phenoxy-1-(1H-pyrazol-4-yl)piperidine]  0.22 µM
6. COCc1ccc(C2CCN(c3ccn[nH]3)CC2)cc1 [Compound 25, 4-(4-(Methoxymethyl)phenyl)-1-(1H-pyrazol-5-yl)piperidine]  0.28 µM

Target: T1, rCYP4F2 (Homo sapiens, UniProt P78329)
T1 sequence (P78329 5-520): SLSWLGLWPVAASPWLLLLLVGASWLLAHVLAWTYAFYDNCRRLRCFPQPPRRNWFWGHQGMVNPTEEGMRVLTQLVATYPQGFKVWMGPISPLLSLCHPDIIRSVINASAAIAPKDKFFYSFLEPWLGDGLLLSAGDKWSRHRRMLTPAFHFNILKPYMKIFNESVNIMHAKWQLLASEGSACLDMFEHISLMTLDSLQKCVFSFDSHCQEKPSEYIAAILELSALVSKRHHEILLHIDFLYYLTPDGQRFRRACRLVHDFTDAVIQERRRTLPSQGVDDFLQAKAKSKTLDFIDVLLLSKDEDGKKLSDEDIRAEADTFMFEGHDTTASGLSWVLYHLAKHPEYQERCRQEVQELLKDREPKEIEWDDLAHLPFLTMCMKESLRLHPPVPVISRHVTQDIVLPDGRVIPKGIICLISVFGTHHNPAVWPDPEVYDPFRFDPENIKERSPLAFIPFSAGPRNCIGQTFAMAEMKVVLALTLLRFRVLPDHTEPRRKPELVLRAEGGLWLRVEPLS
Experiment: Inhibition of 20-HETE formation at 250 or 500 nM in rCYP4F2 incubations
Assay type: biochemical
Conditions: 500 nM compound; rCYP4F2 25 pmol/mL; read-out: rCYP4F2 % inh. @ 500 nM
In short: as §1

In order of falling inhibition at 0.5 µM:
1. COCc1ccc(C2CCN(c3cn[nH]c3)CC2)cc1 [Compound 26, 4-(4-(Methoxymethyl)phenyl)-1-(1H-pyrazol-4-yl)piperidine]  81.7%
2. Cc1ccc(C2CCN(c3cn[nH]c3)CC2)cc1 [Compound 24, 1-(1H-Pyrazol-4-yl)-4-(p-tolyl)piperidine]  79.9%
3. c1ccc(SC2CCN(c3cn[nH]c3)CC2)cc1 [Compound 40, 4-(Phenylthio)-1-(1H-pyrazol-4-yl)piperidine]  75.9%
4. Cc1ccc(C2CCN(c3ccn[nH]3)CC2)cc1 [Compound 23, 1-(1H-Pyrazol-5-yl)-4-(p-tolyl)piperidine]  70.8%
5. COCc1ccc(C2CCN(c3ccn[nH]3)CC2)cc1 [Compound 25, 4-(4-(Methoxymethyl)phenyl)-1-(1H-pyrazol-5-yl)piperidine]  67.8%
6. c1ccc(OC2CCN(c3cn[nH]c3)CC2)cc1 [Compound 14, 4-Phenoxy-1-(1H-pyrazol-4-yl)piperidine]  60%

System: not listed separately
Experiment: HLM stability determination
Assay type: in vitro ADME, human
Conditions: HLM 500 μg/ml, 1 μM compound, NADPH, relative to 0 min
Description: HLM stability determinations shown in Table 3 were obtained as follows. Microsomal incubates contained HLM (500 μg/ml), test compounds (1 μM) and NADPH (1.3 mM) in a 1 ml total volume of microsomal incubation buffer (0.12 M potassium phosphate buffer containing 5 mM magnesium chloride). Reaction was started by adding NADPH to the incubates and was carried out at 37° C. in a shaking water bath for 60 min. At 0, 15, 30, 45, 60 min, a 50 μl aliquot of incubates was taken out and reaction was stopped by adding aliquot into 200 μl ice-cold acetonitrile. After centrifugation at 14000×g for 5 min, 200 μl supernatant was taken out for UPLC-MS/MS analysis as described above. Values at 0 min were used as corresponding control for test compounds. Varapamil, metoprolol, and warfarin, categorized as fast, moderate and slow metabolism, were used as positive control. Incubates without NADPH group served as negative control.

In order of rising “Stability HLM % @ 30 min” value:
1. Cc1ccc(C2CCN(c3ccn[nH]3)CC2)cc1 [Compound 23, 1-(1H-Pyrazol-5-yl)-4-(p-tolyl)piperidine]  61%
2. c1ccc(SC2CCN(c3cn[nH]c3)CC2)cc1 [Compound 40, 4-(Phenylthio)-1-(1H-pyrazol-4-yl)piperidine]  82%
3. Cc1ccc(C2CCN(c3cn[nH]c3)CC2)cc1 [Compound 24, 1-(1H-Pyrazol-4-yl)-4-(p-tolyl)piperidine]  92%
4. c1ccc(OC2CCN(c3cn[nH]c3)CC2)cc1 [Compound 14, 4-Phenoxy-1-(1H-pyrazol-4-yl)piperidine]  97%
5. COCc1ccc(C2CCN(c3ccn[nH]3)CC2)cc1 [Compound 25, 4-(4-(Methoxymethyl)phenyl)-1-(1H-pyrazol-5-yl)piperidine]  100%
6. COCc1ccc(C2CCN(c3cn[nH]c3)CC2)cc1 [Compound 26, 4-(4-(Methoxymethyl)phenyl)-1-(1H-pyrazol-4-yl)piperidine]  100%

System: 20-HETE formation (CYP4) in RLM
Experiment: Inhibition of 20-HETE formation at 250 or 500 nM in RLM microsomal incubations
Assay type: biochemical, rat
Conditions: 500 nM compound; RLM 300 μg/ml
In short: as §1

In order of falling “RLM % inh. @ 500 nM” value:
1. COCc1ccc(C2CCN(c3cn[nH]c3)CC2)cc1 [Compound 26, 4-(4-(Methoxymethyl)phenyl)-1-(1H-pyrazol-4-yl)piperidine]  27.80%
2. COCc1ccc(C2CCN(c3ccn[nH]3)CC2)cc1 [Compound 25, 4-(4-(Methoxymethyl)phenyl)-1-(1H-pyrazol-5-yl)piperidine]  21.30%
3. Cc1ccc(C2CCN(c3cn[nH]c3)CC2)cc1 [Compound 24, 1-(1H-Pyrazol-4-yl)-4-(p-tolyl)piperidine]  16.30%
4. c1ccc(SC2CCN(c3cn[nH]c3)CC2)cc1 [Compound 40, 4-(Phenylthio)-1-(1H-pyrazol-4-yl)piperidine]  7.80%
5. c1ccc(OC2CCN(c3cn[nH]c3)CC2)cc1 [Compound 14, 4-Phenoxy-1-(1H-pyrazol-4-yl)piperidine]  0.00%
6. Cc1ccc(C2CCN(c3ccn[nH]3)CC2)cc1 [Compound 23, 1-(1H-Pyrazol-5-yl)-4-(p-tolyl)piperidine]  0.00%

System: not listed separately
Experiment: Turbidometric solubility determination
Assay type: physicochemical
Conditions: PBS with 1% DMSO, aqueous buffer, kinetic from dmso stock, room temperature, OD620, read-out: Max Solub
In short: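 Kinetic turbidimetric solubility: DMSO stocks diluted 1:100 into PBS in triplicate to give 0–600 μM in 1% DMSO. Shaken 2 h at room temperature, then OD620 read. Solubility limit taken as the concentration giving a statistically significant absorbance rise above background.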

In order of rising solubility at 2 h:
1. Cc1ccc(C2CCN(c3cn[nH]c3)CC2)cc1 [Compound 24, 1-(1H-Pyrazol-4-yl)-4-(p-tolyl)piperidine]  85.4 µM
2. c1ccc(SC2CCN(c3cn[nH]c3)CC2)cc1 [Compound 40, 4-(Phenylthio)-1-(1H-pyrazol-4-yl)piperidine]  95.5 µM
3. Cc1ccc(C2CCN(c3ccn[nH]3)CC2)cc1 [Compound 23, 1-(1H-Pyrazol-5-yl)-4-(p-tolyl)piperidine]  166 µM
4. COCc1ccc(C2CCN(c3ccn[nH]3)CC2)cc1 [Compound 25, 4-(4-(Methoxymethyl)phenyl)-1-(1H-pyrazol-5-yl)piperidine]  235 µM
5. COCc1ccc(C2CCN(c3cn[nH]c3)CC2)cc1 [Compound 26, 4-(4-(Methoxymethyl)phenyl)-1-(1H-pyrazol-4-yl)piperidine]  366 µM

Same assay, conditions: PBS with 1% DMSO, aqueous buffer, kinetic from dmso stock, room temperature, read-out: Solubility_ug/mL

In order of rising solubility at 2 h:
1. Cc1ccc(C2CCN(c3cn[nH]c3)CC2)cc1 [Compound 24, 1-(1H-Pyrazol-4-yl)-4-(p-tolyl)piperidine]  20.6 µg/mL
2. c1ccc(SC2CCN(c3cn[nH]c3)CC2)cc1 [Compound 40, 4-(Phenylthio)-1-(1H-pyrazol-4-yl)piperidine]  24.8 µg/mL
3. Cc1ccc(C2CCN(c3ccn[nH]3)CC2)cc1 [Compound 23, 1-(1H-Pyrazol-5-yl)-4-(p-tolyl)piperidine]  40.1 µg/mL
4. COCc1ccc(C2CCN(c3ccn[nH]3)CC2)cc1 [Compound 25, 4-(4-(Methoxymethyl)phenyl)-1-(1H-pyrazol-5-yl)piperidine]  63.9 µg/mL
5. COCc1ccc(C2CCN(c3cn[nH]c3)CC2)cc1 [Compound 26, 4-(4-(Methoxymethyl)phenyl)-1-(1H-pyrazol-4-yl)piperidine]  99.4 µg/mL
